How the values were obtained:
[1] = molecular target: T1, ATM (Homo sapiens, UniProt Q13315); experiment: ATM inhibition test (phosphorylation of Chk2 generated by ionizing radiation, AlphaScreen SureFire); format: cell-based; details: phosphorylated Chk2 in NCI-H460 cells, ionizing radiation 8Gy, 1 hour after test compound treatment; read-out: ATM inhibitory activity
T1 construct: detecting phosphorylation of Chk2 in a human non-small cell lung cancer cell line NCI-H460 (ATCC company); host or cells: NCI-H460 human non-small cell lung cancer cells
Procedure, shortened: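 NCI-H460 cells, compound 1 h pre-treatment, 8Gy IR, further 1 h at 37° C in 5% CO2. Read-out: phospho-Chk2 via AlphaScreen SureFire. % inhibition relative to IR-induced signal window (irradiated vs non-irradiated drug-free wells).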

[2] = tested on: human non-small cell lung cancer cell line NCI-H460; experiment: Cell proliferation inhibition test by sensitivity-enhancing to ionizing radiation (Cell Titer Glo); format: cell-based; details: Homo sapiens, NCI-H460, 120 h, concentration in which SER became 2; NCI-H460 cells, ionizing radiation 2 Gy, cultured 120 hour
Procedure, shortened: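 Radiosensitisation measured as SER, a ratio of Cell Titer Glo luminescence in irradiated vs unirradiated plates relative to DMSO; SER2, the concentration yielding SER 2, came from sigmoidal regression. Compound (0.1% DMSO) was given 24 h post-seeding, 2 Gy applied 30 min later, then 120 hour culture at 37° C.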

T1 sequence (Q13315 whole entry): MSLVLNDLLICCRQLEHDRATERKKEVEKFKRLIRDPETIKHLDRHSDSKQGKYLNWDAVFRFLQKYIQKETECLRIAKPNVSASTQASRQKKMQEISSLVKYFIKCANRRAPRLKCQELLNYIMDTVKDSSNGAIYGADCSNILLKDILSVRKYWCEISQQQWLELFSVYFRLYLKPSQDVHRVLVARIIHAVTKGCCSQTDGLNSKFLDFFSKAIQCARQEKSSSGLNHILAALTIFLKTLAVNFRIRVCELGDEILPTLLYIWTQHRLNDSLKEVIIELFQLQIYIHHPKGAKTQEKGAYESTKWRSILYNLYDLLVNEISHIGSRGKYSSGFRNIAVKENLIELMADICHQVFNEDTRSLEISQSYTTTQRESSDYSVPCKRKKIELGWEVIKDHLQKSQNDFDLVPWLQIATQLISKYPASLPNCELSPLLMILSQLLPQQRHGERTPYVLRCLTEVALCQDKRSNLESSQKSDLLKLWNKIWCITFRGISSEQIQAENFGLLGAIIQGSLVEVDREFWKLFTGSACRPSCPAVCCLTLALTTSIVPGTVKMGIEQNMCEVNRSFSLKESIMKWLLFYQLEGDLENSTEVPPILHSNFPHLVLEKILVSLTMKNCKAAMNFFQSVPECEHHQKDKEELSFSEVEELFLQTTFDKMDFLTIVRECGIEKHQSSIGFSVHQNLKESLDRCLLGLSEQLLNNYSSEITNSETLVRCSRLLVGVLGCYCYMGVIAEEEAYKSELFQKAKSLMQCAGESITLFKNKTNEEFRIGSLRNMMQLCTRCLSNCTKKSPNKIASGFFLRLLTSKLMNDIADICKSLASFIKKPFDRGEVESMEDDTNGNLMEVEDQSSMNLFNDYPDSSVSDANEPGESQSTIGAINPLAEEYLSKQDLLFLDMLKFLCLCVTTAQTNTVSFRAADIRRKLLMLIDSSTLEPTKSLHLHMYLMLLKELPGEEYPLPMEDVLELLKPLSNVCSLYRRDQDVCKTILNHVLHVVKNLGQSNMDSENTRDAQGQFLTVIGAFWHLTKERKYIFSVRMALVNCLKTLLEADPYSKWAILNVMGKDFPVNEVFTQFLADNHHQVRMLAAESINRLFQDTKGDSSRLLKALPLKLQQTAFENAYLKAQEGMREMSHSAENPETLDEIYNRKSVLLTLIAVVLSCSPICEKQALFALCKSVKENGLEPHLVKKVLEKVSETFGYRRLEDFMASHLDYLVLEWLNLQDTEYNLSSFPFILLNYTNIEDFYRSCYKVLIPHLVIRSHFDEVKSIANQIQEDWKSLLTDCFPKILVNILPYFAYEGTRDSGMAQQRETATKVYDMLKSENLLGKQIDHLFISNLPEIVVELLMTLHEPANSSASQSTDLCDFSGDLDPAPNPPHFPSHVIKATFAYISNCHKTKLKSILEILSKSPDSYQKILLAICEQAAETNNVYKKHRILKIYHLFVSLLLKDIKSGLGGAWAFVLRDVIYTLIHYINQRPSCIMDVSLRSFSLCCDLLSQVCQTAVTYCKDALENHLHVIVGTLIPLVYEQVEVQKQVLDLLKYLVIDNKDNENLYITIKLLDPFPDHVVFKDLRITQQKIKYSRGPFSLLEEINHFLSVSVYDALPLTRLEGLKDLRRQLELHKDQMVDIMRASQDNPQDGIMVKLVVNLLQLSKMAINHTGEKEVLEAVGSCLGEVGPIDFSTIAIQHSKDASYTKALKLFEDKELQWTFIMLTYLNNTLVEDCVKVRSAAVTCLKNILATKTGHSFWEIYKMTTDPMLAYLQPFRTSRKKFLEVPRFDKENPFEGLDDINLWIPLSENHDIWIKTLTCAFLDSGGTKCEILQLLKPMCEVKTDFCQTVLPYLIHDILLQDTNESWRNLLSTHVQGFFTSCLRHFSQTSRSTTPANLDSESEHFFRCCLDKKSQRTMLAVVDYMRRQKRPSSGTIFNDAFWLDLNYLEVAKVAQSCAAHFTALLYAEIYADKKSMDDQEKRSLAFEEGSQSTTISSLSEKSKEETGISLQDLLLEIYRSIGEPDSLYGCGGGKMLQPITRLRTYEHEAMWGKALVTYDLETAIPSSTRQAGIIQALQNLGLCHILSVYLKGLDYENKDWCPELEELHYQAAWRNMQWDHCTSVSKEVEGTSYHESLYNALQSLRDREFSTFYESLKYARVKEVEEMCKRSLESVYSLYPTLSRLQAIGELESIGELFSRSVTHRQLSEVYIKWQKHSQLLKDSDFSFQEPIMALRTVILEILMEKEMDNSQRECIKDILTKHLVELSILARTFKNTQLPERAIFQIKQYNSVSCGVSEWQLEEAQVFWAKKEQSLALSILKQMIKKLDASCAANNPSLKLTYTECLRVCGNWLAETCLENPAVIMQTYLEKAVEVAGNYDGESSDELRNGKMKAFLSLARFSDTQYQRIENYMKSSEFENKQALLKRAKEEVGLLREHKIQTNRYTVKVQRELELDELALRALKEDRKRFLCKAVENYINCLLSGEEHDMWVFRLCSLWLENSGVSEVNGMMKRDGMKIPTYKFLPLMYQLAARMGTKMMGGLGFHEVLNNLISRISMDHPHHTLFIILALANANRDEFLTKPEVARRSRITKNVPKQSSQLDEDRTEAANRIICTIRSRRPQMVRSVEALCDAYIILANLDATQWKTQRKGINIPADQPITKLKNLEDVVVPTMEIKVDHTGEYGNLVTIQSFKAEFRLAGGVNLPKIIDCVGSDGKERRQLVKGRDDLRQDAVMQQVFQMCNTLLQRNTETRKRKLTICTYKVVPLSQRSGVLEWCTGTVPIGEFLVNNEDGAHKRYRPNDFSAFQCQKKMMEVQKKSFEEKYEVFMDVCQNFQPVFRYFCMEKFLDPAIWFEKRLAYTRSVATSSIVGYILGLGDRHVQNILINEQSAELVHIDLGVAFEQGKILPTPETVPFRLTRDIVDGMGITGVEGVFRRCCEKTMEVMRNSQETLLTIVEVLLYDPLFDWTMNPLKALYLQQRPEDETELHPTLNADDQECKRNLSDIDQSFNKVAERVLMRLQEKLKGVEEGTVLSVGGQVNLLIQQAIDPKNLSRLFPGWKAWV

Row | Compound | IC50 [1] [nM] | SER2 (concentration at which the radiation sensitivity-enhancement ratio reaches 2) [2] [nM]
1 | Cc1ccc(C(Nc2ccc3c(c2)Sc2cccc(-c4cc(N5CCOCC5)cc(=O)[nH]4)c2S3)C(C)C)nc1 (stereo not shown) [Example 1-12-121, 6-(7-((2-Methyl-1-(5-methylpyridin-2-yl)propyl)amino)thianthren-1-yl)-4-morpholino pyridin-2(1H)-one] | < 100 | 100 to 500
2 | O=c1cc(N2CCOCC2)cc(-c2cccc3c2Sc2ccc(NC4CCCN(Cc5cccnc5)C4)cc2S3)[nH]1 (stereo not shown) [Example 1-24-2, 4-Morpholine-6-(7-((1-(pyridin-3-ylmethyl)piperidin-3-yl)amino)thianthren-1-yl)pyridin-2 (1H)-one] | < 100 | 100 to 500

Second part, led by results:

Row | IC50 [1] [nM] | Compound | SER2 (concentration at which the radiation sensitivity-enhancement ratio reaches 2) [2] [nM]
3 | < 100 | COc1ncccc1CN1CCC(Nc2ccc3c(c2)Cc2cccc(-c4cc(N5CCOCC5)cc(=O)[nH]4)c2O3)CC1 [Example 2-28-5, 6-(7-((1-((2-Methoxypyridin-3-yl)methyl)piperidin-4-yl)amino)-9H-xanthen-4-yl)-4-morpholino pyridin-2(1H)-one] | 500 to 2000
4 | < 100 | O=c1cc(N2CCOCC2)cc(-c2cccc3c2Oc2ccc(NCc4ccnc(Br)c4)cc2S3)[nH]1 [Example 4-4-16, 6-(8-(((2-Bromopyridin-4-yl)methyl)amino)phenoxathiin-4-yl)-4-morpholino pyridin-2(1H)-one] | 100 to 500
5 | < 100 | COC(C)(C)c1cncc(CNc2ccc3c(c2)Cc2cccc(-c4cc(N5CCOCC5)cc(=O)[nH]4)c2O3)c1 [Example 2-14-12, 6-(7-(((5-(2-Methoxypropan-2-yl)pyridin-3-yl)methyl)amino)-9H-xanthen-4-yl)-4-morpholino pyridin-2 (1H)-one] | 100 to 500

Source: US9586951B2 (FUJIFILM Corporation, priority 2013, dated 2017)
